Measured values reported in US6121457A, “Compositions and methods using novel substituted imidazolium lipids” (Megabios Corporation, priority 1998, dated 2000).

Experiments:
[1] = test system: CAT reporter protein in lung and serum; assay: IV delivery in rabbits: CAT ELISA, lung and serum; format: in vivo; settings: Rabbit #4, lipid only, highest vol. IV, about 24 h
Description: This example provides an evaluation of Compound 1 as a suitable lipid in DNA:lipid complexes for transfection in rabbits.
(§1) Pilot studies were conducted to assess the suitability of rabbits as a development model for delivery of lipid:DNA complexes. The study confirmed that rabbits offer the ability to express transfected genes as well as display some anticipated toxicity endpoints.
(§2) A 2 mL blood sample is collected immediately prior to dose delivery for serum collection and another 2 mL for a CBC/clinical chemistry screen. Sufficient blood is also collected at necropsy to perform a CBC and clinical chemistry screen and preserve serum (minimum of 8 mL).
(§3) Approximately 24 hours after dosing the animals are euthanized using a barbiturate overdose. Following euthanasia, body weights are determined and an examination is made for the presence of pleural fluid. Any fluid present is harvested while avoiding blood contamination. Total protein and albumin levels are determined on the pleural fluid.
(§4) Tissues are collected and preserved as follows: lung tissue (8 vials in liquid nitrogen, 2 lobes infused with formalin, and optionally 2 Whirlpaks® in dry ice); liver tissue (multiple sites in formalin); kidney tissue (multiple sites in formalin); spleen tissue (multiple sites in formalin); heart tissue (multiple sites in formalin); and multiple serum samples (6 mL minimum in dry ice).

[2] = IV toleration and necropsy observations in rabbits; format: in vivo, rabbit; settings: just the lipid, about 24 h
Description: as §1, §2, §3, §4

[3] = test system: CAT protein in lungs; assay: IV gene transfer in mice: lung CAT reporter expression (plasmid p4119) by ELISA; format: in vivo, ICR female mice; settings: for mean CAT expression level (CAT ELISA): formulated with cholesterol and plasmid p4119, IV, five mice each, value followed by +/- spread
Description: This example provides an evaluation of the cationic lipid prepared in Example 1.
Two mice studies have been performed for the evaluation of cationic lipids of the present invention, in comparison with DOTIM (see, Liu, et al, Nature Biotechnology 15:167-173 (1997)). In brief, the lipid combinations were tested as carriers for gene transfer by intravenous delivery in ICR female mice (25 g), and expression was determined using the plasmid p4119 containing the CAT reporter gene under the control of the HCMV promoter. The lipids were dissolved in a mixture of chloroform and methanol (1:1). Lipid films of cationic and neutral lipid (either cholesterol or DLPE) at a 1:1 molar ratio were formed with a rotary evaporator. The films were hydrated with 5% dextrose in water (D5W) at room temperature and extruded through a series of membranes having pore sizes of 400 nm, 200 nm, and 50 nm.
DNA-liposome complexes were prepared at a 1:6 DNA:cationic lipid ratio (mg DNA per μmole cationic lipid) by adding the DNA, in a solution at 0.625 mg/mL concentration in D5W to the solution of liposomes, in an equal volume, with constant stirring, using a Hamilton Dilutor 540B (Hamilton, Reno, Nev.). DOTIM:cholesterol was used at a 1:6 DNA:cationic lipid ratio. The DNA solution was 0.3125 mg/mL DNA in D5W. The resulting complexes were sized using a Submicron Particle Sizer 370 (Nicomp, Santa Barbara, Calif.). Zeta potential was determined by a Zeta Plus, Zeta Potential Analyzer (Brookhaven Instruments Corp.). A total of 5 mice were tested per group. A dose of 62.5 μg p4119 plasmid DNA in 200 μL D5W was injected by tail vein per mouse. The lungs were harvested after 24 hours and assayed for CAT protein by ELISA assay. […] The upper organic phase was then transferred into scintillation vials containing 5 mL of Ready Safe Liquid Scintillation Cocktail (Beckman, Fullerton, Calif.). Samples were counted for 1 min each. […]

Row | SMILES | CAT ELISA, lung [1] [pg/mg] | CAT ELISA, serum [1] [pg/mL] | airway foam or excessive pleural fluid [2] | lesions [2] | lung appearance at necropsy [2] | lung CAT expression / in vivo activity, in words ([3]; IV, mice, both protocols) | mean CAT expression level (CAT ELISA) [3] [pg/mg]
1 | CCCCCCCC/C=C\CCCCCCCC[N+]1=C(CCCCCCC/C=C\CCCCCCCC)N(CCO)CC1 [Compound 1] | 0 | 0 | no airway foam or excessive pleural fluid was noted | No lesions were noted | diffusely red lungs which failed to collapse | retained the in vivo activity of DOTIM | 306.09
2 | CCCCCCCCCCCCCCCCCC[N+]1=C(CCCCCCCCCCCCCCCCC)N(CCO)CC1 [Formula III (Compound 2)] |  |  |  |  |  |  | 853.20
